# Test results as given in PubChem BioAssay AID743184 (Broad Institute, 2013).
# Active and inactive are the calls of the source. The rule behind the calls is not given here.
# Assay: M. tuberculosis BioA enzyme inhibitors, biochemical, single concentration, dry powder (AID 743184)
# Details: at 9.99 µM; active compounds read high
row,SMILES,activity score
1,O=C(O)CC/C(=C\c1ccccc1[N+](=O)[O-])c1nc2ccccc2s1,-1.5% (inactive)
2,Cc1ccc(/C=C(\CCC(=O)O)c2nc3ccccc3s2)cc1[N+](=O)[O-],-15.2% (inactive)
3,Cc1cccc(/C=C(\CCC(=O)O)c2nc3ccccc3s2)c1,1.92% (inactive)
4,O=C(c1ccc2c(c1)OCO2)N1CCN(c2ccc(F)cc2)CC1,-13.9% (inactive)
5,O=C(Nc1ccc2[nH]ccc2c1)N1CCN(c2ccccc2)CC1,29.5% (inactive)
6,O=C(c1ccc2c(c1)OCO2)N1CCN(Cc2ccccc2)CC1,-10.2% (inactive)
7,COc1cccc(NC(=O)CCC2CCN(C(=O)c3ccc(C(C)=O)s3)CC2)c1,1.4% (inactive)
8,Cc1nc2ccc(NC(=O)N3CCN(c4ccccc4)CC3)cc2s1,-0.913% (inactive)
9,O=C(Nc1ccc(Cl)cc1)c1cc2nc(C3CC3)cc(C(F)(F)F)n2n1,-6.7% (inactive)
10,Cc1ccc(-c2cc(C(F)(F)F)n3nc(C(=O)Nc4cccnc4)cc3n2)cc1,8.78% (inactive)
11,CC(=O)c1ccc(N2CCN(C(=O)c3ccc(Br)cc3)CC2)c(F)c1,7.7% (inactive)
12,O=C(Nc1cccc(F)c1)N1CCN(c2ccccc2)CC1,-3.46% (inactive)
13,COc1ccc(NC(=O)N2CCN(c3ccccc3)CC2)cc1,-12.2% (inactive)
14,COc1ccc(N2CCN(C(=O)c3ccc4c(c3)OCO4)CC2)cc1,-1.28% (inactive)
15,O=C(Nc1ccc(Cl)c(-c2nc3ccccc3[nH]2)c1)c1cccnc1,5.48% (inactive)
16,COc1ccc(C(=O)N2CCN(c3ccc(C(C)=O)cc3)CC2)cc1,20.7% (inactive)
17,Cc1ccc(/C=C(\CCC(=O)O)c2nc3ccccc3s2)cc1,-6% (inactive)
18,O=C(Nc1cccnc1)c1cnn2c(C(F)(F)F)cc(-c3ccccc3)nc12,11.8% (inactive)
19,CC(=O)c1ccc(N2CCN(C(=O)c3cccnc3)CC2)cc1,-8.01% (inactive)
20,CC(=O)c1ccc(N2CCN(Cc3ccc4c(c3)OCO4)CC2)cc1,-2% (inactive)
21,O=C(Nc1cccnc1)c1cc2nc(-c3cccs3)cc(C(F)(F)F)n2n1,6.22% (inactive)
22,O=C(Nc1cccnc1)N1CCN(c2ccccc2)CC1,-4.1% (inactive)
23,Cc1cc(C)n2nc(C(=O)Nc3cccnc3)nc2n1,11.6% (inactive)
24,Cc1ccc(/C=C(\CCCC(=O)O)c2nc3ccccc3s2)cc1[N+](=O)[O-],1.05% (inactive)
25,CC(=O)c1ccc(N2CCN(C(=O)c3ccc(Cl)cc3)CC2)cc1,5.46% (inactive)
26,CCc1ccc(C(=O)N2CCN(Cc3ccc4c(c3)OCO4)CC2)cc1,0.311% (inactive)
27,CC(=O)c1ccc(N2CCN(C(=O)c3ccc4ncsc4c3)CC2)cc1,-4.47% (inactive)

row,SMILES,activity score
1,O=C(Nc1ccc(F)cc1)N1CCN(c2ccccc2)CC1,5.21% (inactive)
2,Cc1ccccc1/C=C(\CCC(=O)O)c1nc2ccccc2s1,-6.51% (inactive)
3,O=C(Nc1ccc2snnc2c1)N1CCN(c2ccccc2)CC1,-7.17% (inactive)
4,Cc1ccc(NC(=O)N2CCN(c3ccccc3)CC2)cc1,17.2% (inactive)
5,CC(C)(C)c1ccc(C(=O)N2CCN(c3ccc4c(c3)OCO4)CC2)cc1,-3.13% (inactive)
6,CCc1ccc(N2CCN(C(=O)c3ccc4c(c3)OCO4)CC2)cc1,-0.719% (inactive)
7,CC(=O)c1ccc(N2CCN(C(=O)c3ccc(C)cc3)CC2)cc1,-7.19% (inactive)
8,O=C(Nc1ccccc1)N1CCN(c2ccccc2)CC1,-4.99% (inactive)
9,Cc1nc2cc(NC(=O)N3CCN(c4ccccc4)CC3)ccc2o1,4.18% (inactive)
10,COc1cccc(NC(=O)N2CCN(c3ccccc3)CC2)c1,2.06% (inactive)
11,COc1ccc(-c2cc(C(F)(F)F)n3nc(C(=O)Nc4cccnc4)cc3n2)cc1,-9.52% (inactive)
12,O=C(c1ccc2c(c1)OCO2)N1CCN(c2ccc(Cl)cc2)CC1,-0.291% (inactive)
13,CC(=O)c1ccc(N2CCN(C(=O)c3ccc(F)cc3)CC2)cc1,-3.75% (inactive)
14,COC(=O)c1c(C(=O)OC)c(-c2cccc(F)c2)n2c1CS(=O)C2 (centres undefined),-8.08% (inactive)
15,O=C(COc1ccc2ccc(=O)oc2c1)N1CCN(c2ccc(F)cc2)CC1,3.38% (inactive)
16,O=C(Nc1cccnc1)c1cnn2c(C(F)F)cc(C3CC3)nc12,-3.98% (inactive)
17,O=C(c1ccc2c(c1)OCO2)N1CCN(c2ccccc2)CC1,0.078% (inactive)
18,CC(=O)c1ccc(N2CCN(C(=O)c3ccc4c(c3)OCCO4)CC2)cc1,-1.22% (inactive)
19,CC(=O)c1ccc(N2CCN(C(=O)c3ccccc3)CC2)cc1,-3.73% (inactive)
20,CC(=O)c1ccc(N2CCN(C(=O)c3cccc(Cl)c3)CC2)cc1,-11.7% (inactive)
21,Cc1cc(C)n2nc(C(=O)Nc3cccnc3)cc2n1,27.1% (inactive)
22,O=C(Nc1ccncc1)c1cc2nc(C3CC3)cc(C(F)F)n2n1,-0.117% (inactive)
23,O=C(Nc1cccc(Cl)c1)N1CCN(c2ccccc2)CC1,3.11% (inactive)
24,O=C(Nc1ccc2snnc2c1)N1CCCCC1,-5.56% (inactive)
25,Cc1ccc(/C=C(\CC(=O)O)c2nc3ccccc3s2)cc1[N+](=O)[O-],-2.58% (inactive)
26,CC(=O)c1ccc(N2CCN(C(=O)c3cccc(F)c3)CC2)cc1,-6.65% (inactive)
27,O=C(O)CC/C(=C\c1ccc([N+](=O)[O-])cc1)c1nc2ccccc2s1,1.57% (inactive)
